{"source": "patent US20190125745A1", "about": "“TREATMENT AND DIAGNOSIS OF CANCER” (Rgenix, Inc., priority 2014, published 2019)", "key": {"[1]": {"tested_on": "MeWo human melanoma cells", "assay": "Subcutaneous MeWo tumor growth in immunocompromised mice", "assay_type": "in vivo", "conditions": "oral", "experimental": "(§1) FIG. 4. Therapeutic LXR Activation Inhibits Melanoma Tumor Growth. […] Representative tumor images shown correspond to tumors extracted at the final day (d12). n=10-18 (A), 8-10 (B). (C-E) Primary tumor growth by 1×10^6 MeWo (C), […] SK-Mel-334.2 (D), and 2×10^6 SK-Mel-2 (E) human melanoma cells subcutaneously injected into immunocompromised mice. […] Tumor images shown correspond to last day of measurements. n=6-34 (C), 8 (D), 5 (E). (F) 5×10^4 B16F10 cells were injected subcutaneously into C57BL/6-WT mice. Upon tumor growth to 150 mm^3, mice were fed continuously with a control chow or a chow containing GW3965 (150 mg/kg), and tumor growth was measured daily. n=6-13. […] Tumor volume was calculated as (small diameter)^2×(large diameter)/2. […] Scale bars, 5 mm (A-D), 50 μm (J, K), 25 μm (L)."}, "[2]": {"tested_on": "SK-Mel-2 human melanoma cells", "assay": "Subcutaneous SK-Mel-2 tumor growth in immunocompromised mice", "assay_type": "in vivo", "conditions": "oral", "experimental": "as §1"}, "[3]": {"tested_on": "MeWo human melanoma cells", "assay": "Tail-vein lung metastatic colonization by MeWo cells in NOD Scid mice", "assay_type": "in vivo", "conditions": "MeWo cells pre-treated 1 μM, 48 hours", "experimental": "FIG. 6. LXR Agonism Suppresses Melanoma Metastasis to the Lung and Brain. (A) MeWo cells were pre-treated with DMSO or GW3965 (1 μM) for 48 hours and 4×10^4 cells were intravenously injected via the tail-vein into NOD Scid mice. Lung colonization was monitored by weekly bioluminescence imaging. Representative H&E-stained lungs correspond to the final day (d70) are shown. n=4-5. (B-C) Bioluminescence imaging of lung metastasis by 4×10^4 MeWo cells intravenously injected into NOD Scid mice that were fed a control chow or a chow containing GW3965 (20 mg/kg) or T0901317 (20 mg/kg) starting 10 days prior to cancer cell injection. Representative H&E-stained lungs correspond to final imaging day n=5-6. […] (H) Ex-vivo lung photon flux, determined by bioluminescence imaging, in NOD Scid mice that were administered a control chow or a chow containing GW3965 (100 mg/kg) for 1 month following the excision of size-matched (˜300-mm^3 in volume) subcutaneous melanoma tumors formed by 1×10^6 MeWo melanoma cells. […] Following initiation of metastases, detected by bioluminescence imaging on d42, mice were administered a control diet or a GW3965 diet (100 mg/kg) as indicated, and lung colonization progression was measured weekly. n=6. […]"}, "[4]": {"tested_on": "ApoE promoter", "assay": "ApoE promoter activity assay (luciferase, ME.1/ME.2)", "assay_type": "cell-based, human", "conditions": "1 μM", "from_the_text": "FIG. 11. LXRβ Activation Suppresses Melanoma Invasion and Endothelial Recruitment by Transcriptionally Enhancing Melanoma-Cell ApoE Expression. […] Scale bar, 50 μm.\nThe ApoE promoter, consisting of a sequence spanning 980 base pairs upstream and 93 base pairs downstream of the ApoEgene, was cloned into a pGL3-Basic vector (E1751, Promega Corporation, Madison, Wis.) upstream of the firefly luciferase gene using NheI and SacI restriction enzymes. Then, multi-enhancer elements 1 (ME.1) and 2 (ME.2) were cloned directly upstream of the ApoE promoter using MluI and […] restriction enzymes. To assess ApoE promoter- and ME.1/ME.2-driven transcriptional activation by LXR agonists, 5×10^4 MeWo cells were seeded into a 24-well plate. […] To assess transcriptional activation by LXRα or LXRβ, 5×10^4 MeWo cells expressing a control shRNA or shRNA targeting LXRα or LXRβ were seeded into a 24-well plate. […] After 24 hours, cells were lysed, and cell lysate was analyzed for firefly and renilla luciferase activity using the Dual Luciferase Assay System (E1960, Promega) and a Bio-Tek Synergy NEO Microplate Reader. Firefly luciferase signal was normalized to renilla luciferase signal and all data are expressed relative to the luciferase activity ratio measured in the DMSO-treated control cells."}, "[5]": {"tested_on": "B16F10 parental and DTIC-resistant cells", "assay": "Tumor growth by DTIC-sensitive and DTIC-resistant B16F10 cells", "assay_type": "in vivo, mouse", "conditions": "chow 100 mg/kg", "quoted_text": "Dacarbazine-resistant B16F10 mouse melanoma cells were generated by continuously culturing the cells in the presence of DTIC (D2390, Sigma-Aldrich, St. Louis, Mo.). First, the cells were treated with 500 μg/mL DTIC for one week. Following this initial DTIC treatment, the remaining (˜10%) viable cells were allowed to recover for one week, after which 750 μg/mL of DTIC was added to the cell media for 5 days. Subsequent to this high-dose treatment, the cells were allowed to recover in the presence of low-dose DTIC (100 μg/mL) for one week. The cells were then continuously cultured in cell media containing 200 μg/mL DTIC for at least one month prior to grafting the cells into mice. DTIC was added to fresh cancer cell media every 3 days. For tumor growth experiments, 5×10^4 B16F10 parental and DTIC-resistant cells were subcutaneously injected into the lower flank of 7-week-old C57BL/6 mice."}, "[6]": {"tested_on": "DTIC-resistant MeWo human melanoma cells", "conditions": "oral, diet 100 mg/kg", "experimental": "Tumor growth was measured twice a week."}, "[7]": {"tested_on": "amyloid plaque pathology and memory deficits", "conditions": "oral delivery; cited from earlier work"}, "[8]": {"tested_on": "ApoE expression", "assay": "ApoE expression by qRT-PCR in human melanoma cells", "quoted_text": "(A-B) Parental MeWo cells were incubated in the presence of DMSO or GW3965 at the indicated concentrations. After 48 hours, total RNA was extracted, and the levels of ApoE (A) and DNAJA4 (B) were determined by qRT-PCR. n=3. (C) Cell invasion by 1×10^5 parental MeWo cells pre-treated with GW3965 or DMSO for 48 hours. n=6-7. p-values based on a one-sided student's t-test. […] (D) Endothelial recruitment by 5×10^4 parental MeWo cells pre-treated with GW3965 or DMSO for 48 hours. n=6-7. p-values based on a one-sided student's t-test. (E) Mice were fed with grain-based chow diet containing GW3965 (20 mg/kg) or a control diet. After 10 days, 4×10^4 parental MeWo cells were tail-vein injected into mice, and the mice were continuously fed with GW3965-containing chow or a control diet throughout the experiment.\n(A-C) MeWo (A), HT-144 (B), and WM-266-4 (C) human melanoma cells were treated with GW3965 or T0901317 at the indicated concentrations for 48 hours, and the expression levels of ApoE were analysed by qRT-PCR. n=3. (D) Extracellular ApoE protein levels, quantified by ELISA, in serum-free conditioned media collected from HT-144 human melanoma cells treated with DMSO, GW3965, or T0901317 at 1 μM for 72 hours. n=3-4. […] (I-J) Relative ApoE expression, quantified by qRT-PCR, in MeWo (I) and HT-144 (J) cells transduced with a control shRNA or shRNAs targeting LXRα or LXRβ and subsequently treated with DMSO, GW3965, or T0901317 at 1 μM for 48 hours. n=3-9. (K) Extracellular ApoE protein levels, measured by ELISA, in serum-free conditioned media harvested from HT-144 cells transduced with a control shRNA or an shRNA targeting LXRα or LXRβ and treated with DMSO or GW3965 at 1 μM for 72 hours. n=3.\nRNA was extracted from whole cell lysates using the Total RNA Purification Kit (17200, Norgen, Thorold, Canada). 600 ng of total RNA was then reverse transcribed into cDNA using the cDNA First-Strand Synthesis Kit (18080-051, Invitrogen), and quantitative real-time PCR amplification was performed as previously described (Pencheva et al., 2012) using an ABI Prism 7900HT Real-Time PCR System (Applied Biosystems, Austin, Tex.). […]\nFor every sample, 600 ng of RNA was reverse transcribed into cDNA using the cDNA First-Strand Synthesis kit (Invitrogen). […] Each reaction was carried out in quadruplicates, and ApoE mRNA expression levels were measured by quantitative real-time PCR amplification using an ABI Prism 7900HT Real-Time PCR System (Applied Biosystems). The relative ApoE expression was determined using the ΔΔCt method."}}, "note": "Counter-ions that a name gives are not always drawn."}
{"smiles": "O=C(O)Cc1cccc(OCCCN(Cc2cccc(C(F)(F)F)c2Cl)CC(c2ccccc2)c2ccccc2)c1", "note": "[GW3965 108, 3-[3-[N-(2-Chloro-3-trifluoromethylbenzyl)-(2,2-diphenylethyl)amino]propyloxy] phenylacetic acid hydrochloride]", "values": [{"measurement": "inhibition of tumor growth, MeWo", "setting": "[1]", "value": 70, "unit": "%"}, {"measurement": "inhibition of tumor growth, SK-Mel-2", "setting": "[2]", "value": 49, "unit": "%"}, {"measurement": "reduction in metastatic colonization capacity after pre-treatment of cells", "setting": "[3]", "value": "more than 50 fold"}, {"measurement": "ability to upregulate ApoE transcription and protein expression upon melanoma cell depletion of LXRβ, but not LXRα", "setting": "[4]", "value": "abrogated"}, {"measurement": "suppression of tumor growth by the DTIC-resistant B16F10 melanoma clone", "setting": "[5]", "value": "more than 70%"}, {"measurement": "growth of in vivo-derived DTIC-resistant human melanoma tumors (MeWo)", "setting": "[6]", "value": "strongly inhibited"}, {"measurement": "amyloid plaque pathology and memory deficits", "setting": "[7]", "value": "improve amyloid plaque pathology and memory deficits"}, {"measurement": "potency of inducing ApoE expression in vitro", "setting": "[8]", "value": "potently induce"}]}
